Experimental data reported in patent publication US8748621B2, “1,3-disubstituted 4-(aryl-X-phenyl)-1H-pyridin-2-ones” (Janssen Pharmaceuticals, Inc., priority 2007, dated 2014).

Experiments:
[1] = biological target: T1, human mGluR2 receptor (Homo sapiens, UniProt Q14416); test: [35S]GTPγS binding assay (GTPγS-PAM), membranes from CHO cells transfected with human mGluR2, glutamate at EC25; format: biochemical; settings: positive allosteric modulation in presence of glutamate at EC25 concentration; averages of duplicate values of 11-concentration response curves; error about 0.3 log-units; read-out: GTPgS - hR2 PAM pEC50 (converted)
T1 construct: expressed in transfected cells; host or cells: CHO cells (membrane preparation)
Source text: The compounds provided in the present invention are positive allosteric modulators of mGluR2. These compounds appear to potentiate glutamate responses by binding to an allosteric site other than the glutamate binding site. The response of mGluR2 to a concentration of glutamate is increased when compounds of Formula (I) are present. Compounds of Formula (I) are expected to have their effect substantially at mGluR2 by virtue of their ability to enhance the function of the receptor. The behaviour of positive allosteric modulators tested at mGluR2 using the [^35S]GTPγS binding assay method described below and which is suitable for the identification of such compounds, and more particularly the compounds according to Formula (I), are shown in Table 4.
The [^35S]GTPγS binding assay is a functional membrane-based assay used to study G-protein coupled receptor (GPCR) function whereby incorporation of a non-hydrolysable form of GTP, [^35S]GTPγS (guanosine 5′-triphosphate, labelled with […] ^35S), is measured. The G-protein α subunit catalyzes the exchange of guanosine 5′-diphosphate (GDP) by guanosine triphosphate (GTP) and on activation of the GPCR by an agonist, [^35S]GTPγS, becomes incorporated and cannot be cleaved to continue the exchange cycle (Harper (1998) Current Protocols in Pharmacology 2.6.1-10, John Wiley & Sons, Inc.). […] Here we describe the use of the [^35S]GTPγS binding assay using membranes from cells transfected with the human mGluR2 receptor and adapted from Schaffhauser et al ((2003) Molecular Pharmacology 4:798-810) for the detection of the positive allosteric modulation (PAM) properties of the compounds of this invention.
Cho-cells were cultured to pre-confluence and stimulated with 5 mm butyrate for 24 hours, prior to washing in PBS, and then collection by scraping in homogenisation buffer (50 mM Tris-HCl buffer, pH 7.4, 4° C.). Cell lysates were homogenized briefly (15 s) using an ultra-turrax homogenizer. The homogenate was centrifuged at 23 500×g for 10 minutes and the supernatant discarded. The pellet was resuspended in 5 mM Tris-HCl, pH 7.4 and centrifuged again (30 000×g, 20 min, 4° C.). The final pellet was resuspended in 50 mM HEPES, pH 7.4 and stored at −80° C. in appropriate aliquots before use. Protein concentration was determined by the Bradford method (Bio-Rad, USA) with bovine serum albumin as standard.
Measurement of mGluR2 positive allosteric modulatory activity of test compounds in membranes containing human mGluR2 was performed using frozen membranes that were thawed and briefly homogenised prior to pre-incubation in 96-well microplates (15 μg/assay well, 30 minutes, 30° C.) in assay buffer (50 mM HEPES pH 7.4, 100 mM NaCl, 3 mM MgCl2, 50 μM GDP, 10 μg/ml saponin,) with increasing concentrations of positive allosteric modulator (from 0.3 nM to 50 μM) and either a minimal pre-determined concentration of glutamate (PAM assay), or no added glutamate. For the PAM assay, membranes were pre-incubated with glutamate at EC25 concentration, i.e. a concentration that gives 25% of the maximal response glutamate, and is in accordance to published data (Pin et al. (1999) Eur. J. Pharmacol. 375:277˜294). After addition of [^35S]GTPγS (0.1 nM, f.c.) to achieve a total reaction volume of 200 μl, microplates were shaken briefly and further incubated to allow [^35S]GTPγS incorporation on activation (30 minutes, 30° C.). The reaction was stopped by rapid vacuum filtration over glass-fibre filter plates (Unifilter 96-well GF/B filter plates, Perkin-Elmer, Downers Grove, USA) microplate using a 96-well plate cell harvester (Filtermate, Perkin-Elmer, USA), and then by washing three times with 300 μl of ice-cold wash buffer (Na2PO4.2H20 10 mM, NaH2PO4.H20 10 mM, pH=7.4). Filters were then air-dried, and 40 μl of liquid scintillation cocktail (Microscint-O) was added to each well, and membrane-bound [^35S]GTPγS was measured in a 96-well scintillation plate reader (Top-Count, Perkin-Elmer, USA). […]

T1 sequence (Q14416 19-872): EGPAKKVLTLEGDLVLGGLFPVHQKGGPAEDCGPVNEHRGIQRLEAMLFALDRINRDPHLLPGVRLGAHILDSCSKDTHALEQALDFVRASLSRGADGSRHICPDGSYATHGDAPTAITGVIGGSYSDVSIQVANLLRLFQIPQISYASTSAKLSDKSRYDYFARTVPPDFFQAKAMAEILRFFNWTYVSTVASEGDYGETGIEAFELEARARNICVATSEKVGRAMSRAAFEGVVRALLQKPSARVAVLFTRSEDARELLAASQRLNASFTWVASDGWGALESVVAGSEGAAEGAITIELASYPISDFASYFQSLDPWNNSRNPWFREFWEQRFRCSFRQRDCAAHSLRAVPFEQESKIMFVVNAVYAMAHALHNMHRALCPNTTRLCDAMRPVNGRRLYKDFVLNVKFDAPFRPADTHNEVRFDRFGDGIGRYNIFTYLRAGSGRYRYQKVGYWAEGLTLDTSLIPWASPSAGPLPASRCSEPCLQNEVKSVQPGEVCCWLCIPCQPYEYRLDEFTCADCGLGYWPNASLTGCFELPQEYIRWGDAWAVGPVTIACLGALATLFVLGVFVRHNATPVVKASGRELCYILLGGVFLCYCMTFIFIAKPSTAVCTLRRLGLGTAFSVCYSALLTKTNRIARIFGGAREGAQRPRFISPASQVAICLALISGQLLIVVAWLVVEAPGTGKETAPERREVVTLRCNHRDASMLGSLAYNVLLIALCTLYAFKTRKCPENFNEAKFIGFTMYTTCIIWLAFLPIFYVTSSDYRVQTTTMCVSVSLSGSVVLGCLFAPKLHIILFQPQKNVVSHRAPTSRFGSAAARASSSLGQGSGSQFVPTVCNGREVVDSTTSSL

Row | SMILES | EC50 [1] [µM] | melting point [°C]
1 | CCCCn1ccc(-c2ccc(Oc3ccnc(C)c3)cc2F)c(Cl)c1=O [Compound 2, 1-Butyl-3-chloro-4-[2-fluoro-4-(2-methylpyridin-4-yloxy)-phenyl]-1H-pyridin-2-one] | 0.282 | –
2 | Cc1ccc(Oc2ccc(-c3ccn(CC4CC4)c(=O)c3Cl)cc2F)c(C)n1 [Compound 3, 3-Chloro-1-cyclopropylmethyl-4-[4-(2,6-dimethylpyridin-3-yloxy)-3-fluoro-phenyl]-1H-pyridin-2-one] | 0.182 | 143.4
3 | CCCCn1ccc(-c2ccc(Oc3ccc(C(=O)O)cc3)cc2)c(Cl)c1=O [Compound 4, 4-[4-(1-Butyl-3-chloro-2-oxo-1,2-dihydro-pyridin-4-yl)-phenoxy]-benzoic acid] | 0.138 | 280.3
4 | Cc1cc(Oc2ccc(-c3ccn(CCC(C)C)c(=O)c3Cl)cc2)ccn1 [Compound 6] | 0.17 | –
5 | CCCCn1ccc(-c2ccc(Oc3ccnc(C)c3)c(F)c2)c(Cl)c1=O [Compound 8] | 0.174 | –
6 | CCCCn1ccc(-c2ccc(Oc3cc(C)nc(C)c3)c(F)c2)c(Cl)c1=O [Compound 9] | 0.234 | –
7 | CCCCn1ccc(-c2ccc(Oc3cc(C)nc(C)c3)cc2F)c(Cl)c1=O [Compound 10] | 0.2 | –
8 | CCCCn1ccc(-c2ccc(Oc3ccnc(C)c3C)cc2F)c(Cl)c1=O [Compound 11] | 0.0676 | –
9 | Cc1ccc(Oc2ccc(-c3ccn(CC4CC4)c(=O)c3Cl)cc2)c(C)n1 [Compound 14] | 0.138 | 151.8
10 | Cc1cc(Oc2ccc(-c3ccn(CCC(C)C)c(=O)c3Cl)cc2Cl)ccn1 [Compound 19] | 0.0676 | 103.8
11 | Cc1ncccc1Oc1ccc(-c2ccn(CC3CC3)c(=O)c2Cl)cc1Cl [Compound 23] | 0.126 | –
12 | Cc1ncccc1Oc1ccc(-c2ccn(CC3CC3)c(=O)c2Cl)cc1 [Compound 24] | 0.437 | 126.2
13 | Cc1cc(Oc2ccc(-c3ccn(CCC4CC4)c(=O)c3Cl)c(F)c2)ccn1 [Compound 26] | 0.155 | –
14 | CCCCn1ccc(-c2ccc(Oc3cccnc3C)cc2F)c(Cl)c1=O [Compound 29] | > 10 | 108.4
15 | Cc1cc(Oc2ccc(-c3ccn(CC4CC4)c(=O)c3Cl)cc2F)cc(C)n1 [Compound 31] | 0.288 | 161.6
16 | Cc1ncccc1Oc1ccc(-c2ccn(CC3CC3)c(=O)c2Cl)c(F)c1 [Compound 34] | > 10 | 120.9
17 | Cc1cc(C)nc(Oc2ccc(-c3ccn(CC4CC4)c(=O)c3Cl)c(F)c2)c1 [Compound 36] | 0.891 | –

Next, values leading:

Row | EC50 [1] [µM] | melting point [°C] | SMILES
18 | 0.251 | – | CCCCn1ccc(-c2ccc(Oc3ccnc(C)c3)cc2)c(Cl)c1=O [Compound 1, 1-Butyl-3-chloro-4-[4-(2-methylpyridin-4-yloxy)-phenyl]-1H-pyridin-2-one]
19 | 0.0759 | 161.8 | Cc1cc(Oc2ccc(-c3ccn(CC4CC4)c(=O)c3C(F)(F)F)cc2F)cc(C)n1 [Compound 5, 1-Cyclopropylmethyl-4-[4-(2,6-dimethyl-pyridin-4-yloxy)-3-fluoro-phenyl]-3-trifluoromethyl-1H-pyridin-2-one]
20 | 0.174 | – | Cc1cc(Oc2ccc(-c3ccn(CCC4CC4)c(=O)c3Cl)cc2)ccn1 [Compound 7]
21 | 0.129 | – | CCCCn1ccc(-c2ccc(Oc3ccnc(C)c3C)c(F)c2)c(Cl)c1=O [Compound 12]
22 | 0.513 | – | Cc1cc(Oc2ccc(-c3ccn(CC4CC4)c(=O)c3Cl)cc2)ccn1 [Compound 13]
23 | 0.0603 | – | CCCCn1ccc(-c2ccc(Oc3cccnc3C)c(Cl)c2)c(Cl)c1=O [Compound 15]
24 | 0.0676 | – | CCCCn1ccc(-c2ccc(Oc3ccc(C)nc3C)cc2)c(Cl)c1=O [Compound 16]
25 | 0.117 | 120.8 | Cc1cc(Oc2ccc(-c3ccn(CC4CC4)c(=O)c3Cl)cc2Cl)ccn1 [Compound 17]
26 | 0.1 | – | CCCCn1ccc(-c2ccc(Oc3ccnc(C)c3)c(Cl)c2)c(Cl)c1=O [Compound 18]
27 | 0.0912 | 111.8 | Cc1ccc(Oc2ccc(-c3ccn(CC4CC4)c(=O)c3Cl)cc2Cl)cn1 [Compound 20]
28 | 0.0468 | 96.1 | Cc1ccc(Oc2ccc(-c3ccn(CCC(C)C)c(=O)c3Cl)cc2Cl)cn1 [Compound 21]
29 | 0.0468 | 79.7 | CCCCn1ccc(-c2ccc(Oc3ccc(C)nc3)c(Cl)c2)c(Cl)c1=O [Compound 22]
30 | 0.224 | – | CCCCn1ccc(-c2ccc(Oc3cccnc3C)cc2)c(Cl)c1=O [Compound 25]
31 | 0.355 | 176 | Cc1cc(Oc2ccc(-c3ccn(CC4CC4)c(=O)c3Cl)cc2F)ccn1 [Compound 27]
32 | 0.363 | 131.8 | Cc1cc(Oc2ccc(-c3ccn(CC4CC4)c(=O)c3Cl)c(F)c2)ccn1 [Compound 28]
33 | 0.0468 | – | CCCCn1ccc(-c2ccc(Oc3ccc(C)nc3C)c(F)c2)c(Cl)c1=O [Compound 30]
34 | 0.372 | 148.6 | Cc1cc(Oc2ccc(-c3ccn(CC4CC4)c(=O)c3Cl)c(F)c2)cc(C)n1 [Compound 32]
35 | 0.617 | – | Cc1ncccc1Oc1ccc(-c2ccn(CC3CC3)c(=O)c2Cl)cc1F [Compound 33]
36 | > 10 | – | CCCCn1ccc(-c2ccc(Oc3ccc(C)nc3C)cc2F)c(Cl)c1=O [Compound 35]
37 | 0.0398 | – | CCCCn1ccc(-c2ccc(Oc3ccc(C(C)(C)O)cc3)cc2)c(Cl)c1=O [Compound 37]
38 | 0.102 | 203.9 | Cc1cc(Oc2ccc(-c3ccn(CC4CC4)c(=O)c3C(F)(F)F)cc2F)ccn1 [Compound 38]
